The values that follow are results of earlier work, collected in patent US11229674B1, “Nutraceuticals for suppressing indolamine 2,3 deoxygenase” (Therapeutic Solutions International, Inc., priority 2020, dated 2022).

Series [1] deals with T1, IDO (Mus musculus, UniProt P28776).
T1 construct: host or cells: tumour-bearing mice (whole animal)
As to conditions: pregnant mice, allogeneic fetuses.

Series [2] has as its target T1, IDO. As to conditions: mice, combined with chemotherapeutic agents.

T1 sequence (P28776 whole entry): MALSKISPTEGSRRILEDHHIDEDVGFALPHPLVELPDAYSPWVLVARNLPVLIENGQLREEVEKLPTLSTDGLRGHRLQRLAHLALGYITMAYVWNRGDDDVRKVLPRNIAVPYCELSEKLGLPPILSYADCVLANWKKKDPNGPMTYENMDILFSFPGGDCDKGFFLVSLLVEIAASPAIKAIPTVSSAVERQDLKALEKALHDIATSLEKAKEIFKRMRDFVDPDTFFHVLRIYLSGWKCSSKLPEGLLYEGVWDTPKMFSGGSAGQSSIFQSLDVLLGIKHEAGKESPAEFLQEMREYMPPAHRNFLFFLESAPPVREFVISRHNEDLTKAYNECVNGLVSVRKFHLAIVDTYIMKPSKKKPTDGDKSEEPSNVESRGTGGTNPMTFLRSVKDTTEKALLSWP

For the compound `Cn1cc(CC(N)C(=O)O)c2ccccc21` (centres unmarked) [1MT], at IDO [1], the Fetal allograft rejection result was “rapid, T cell-induced rejection of all allogeneic concept”. Moreover, the Tumor growth entry on IDO [2] was “synergize with chemotherapeutic agents to reduce tumor growth”.
